The source of these data is US6177103A, “Processes to generate submicron particles of water-insoluble compounds” (RTP Pharma, Inc., priority 1999, dated 2001).

The nature of series [1]: Particle sizing by photon correlation spectroscopy, fenofibrate microparticles by RELGS process (Example 2). It counts as physicochemical. The note with it: Lipoid E-80 and Tween-80 in liquefied carbon dioxide at 3000 psi expanded into water, 22° C. On the procedure: The particle sizing was performed by photon correlation spectroscopy using Submicron Particle Sizer-Autodilute Model 370 (NICOMP Particle Sizing Systems, Santa Barbara, Calif.). This instrument provides number weighted, intensity weighted, and volume weighted particle size distributions as well as multi-modality of the particle size distribution, if present.

The conditions of series [2]: cited from earlier work.

As for `CC(C)OC(=O)C(C)(C)Oc1ccc(C(=O)c2ccc(Cl)cc2)cc1` [Fenofibrate, fenofibrate], the mean particle size result in series [1] is recorded as “about 200 nm”. For `CC[C@H](C)C(=O)O[C@H]1C[C@@H](C)C=C2C=C[C@H](C)[C@H](CC[C@@H]3C[C@@H](O)CC(=O)O3)[C@H]21` [lovastatin], the particle size in series [2] (micro-particles by rapid expansion from liquefied-gas solution in the supercritical region, most particle sizes reported for organic materials) is recorded as 5-100 micron. Regarding `CC1=C(/C=C/C(C)=C/C=C/C(C)=C/C=C/C=C(C)/C=C/C=C(C)/C=C/C2=C(C)CCCC2(C)C)C(C)(C)CCC1` [beta-carotene], the nanoparticle size in series [2] (expansion of ethane into a viscous gelatin solution) is given as 300 nm.
